These results are taken from US9873717B2, “TRH binding site in human CNS” (THE PROVOST, FELLOWS, FOUNDATION SCHOLARS, AND THE OTHER …, priority 2012, dated 2018).

Experiment [1] has as its target [^3H][3-Me-His^2]TRH-labelled native TRH receptors in rat hippocampal membranes. Kind of experiment: Displacement of [3H][3-Me-His2]TRH, native rat hippocampal membranes. The format is binding. The note with it: native rat tissue; N = 3-6. In general terms: In a radioligand displacement assay an active substance lowers the binding of a labelled ligand.
Experiment [2] deals with [^3H][3-Me-His^2]TRH-labelled native TRH receptors in rat cortical membranes. The experiment can be described thus: Displacement of [3H][3-Me-His2]TRH, native rat cortical membranes. The format is binding. The conditions noted are these: native rat tissue; N = 3-6.
The target in experiment [3] is T1, TRHR1 (GH4 pituitary cell line, naturally expresses TRHR1) (Rattus norvegicus, UniProt Q01717).
T1 construct: a GH4 pituitary cell line, which naturally expresses TRHR1; endogenous in cells; host or cells: GH4 pituitary cell membranes
T1 sequence (Q01717 1-412): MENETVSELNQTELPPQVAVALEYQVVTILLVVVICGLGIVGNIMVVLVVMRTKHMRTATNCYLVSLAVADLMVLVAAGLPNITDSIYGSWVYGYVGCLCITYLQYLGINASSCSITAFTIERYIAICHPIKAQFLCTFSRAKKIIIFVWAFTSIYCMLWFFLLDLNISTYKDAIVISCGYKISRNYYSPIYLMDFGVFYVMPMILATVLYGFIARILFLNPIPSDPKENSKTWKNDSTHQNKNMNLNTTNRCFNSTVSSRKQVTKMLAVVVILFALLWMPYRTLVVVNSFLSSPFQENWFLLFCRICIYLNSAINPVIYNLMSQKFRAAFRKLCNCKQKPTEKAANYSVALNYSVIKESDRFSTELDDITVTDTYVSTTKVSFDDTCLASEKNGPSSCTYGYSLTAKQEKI
The experiment can be described thus: Displacement of [3H][3-Me-His2]TRH, GH4 cell membranes. It is filed as binding. The note with it: N = 2; read-out: IC50, displacement of [^3H][3-Me-His^2]TRH, GH4 cell membranes.

For experiment [4], the target named is T2, TRH receptors in human pituitary tissue (Homo sapiens, UniProt P34981).
T2 construct: from tissue; host or cells: human pituitary membranes from individual donors
T2 sequence (P34981 1-398): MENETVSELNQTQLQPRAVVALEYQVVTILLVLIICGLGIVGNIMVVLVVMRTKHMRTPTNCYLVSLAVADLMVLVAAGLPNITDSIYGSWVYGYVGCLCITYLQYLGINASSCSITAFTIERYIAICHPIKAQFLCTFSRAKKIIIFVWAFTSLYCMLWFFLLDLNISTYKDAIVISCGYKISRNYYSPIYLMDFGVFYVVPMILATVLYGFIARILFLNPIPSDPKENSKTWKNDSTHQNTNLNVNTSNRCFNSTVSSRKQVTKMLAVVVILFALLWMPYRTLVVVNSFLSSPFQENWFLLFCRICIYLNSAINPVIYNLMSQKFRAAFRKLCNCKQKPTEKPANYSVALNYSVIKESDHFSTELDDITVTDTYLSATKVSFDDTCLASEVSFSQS
Kind of experiment: Competition binding with [3H][3-Me-His2]TRH, human pituitary tissue membranes. The method, then:
To investigate the binding of Glp-Asn-Pro-D-Tyr-D-TrpNH2 in human tissue, radioligand binding studies were carried out employing [^3H][3-Me-His^2]TRH to label TRH receptors in cortical, hippocampal, spinal cord and pituitary tissue membranes from human tissue.
Competition binding assays using human tissue prepared from individual donors with no history of neurological disease were carried out essentially as previously described (Kelly et al., 2002; Scalabrino et al., 2007; Hogan et al., 2008) by incubating membrane suspension, [^3H][3-Me-His^2]TRH, and increasing concentrations of peptide for 5 h at 4° C. Non-specific binding (NSB) was determined in the presence of 10 μM TRH. Separation of bound and free ligand was achieved by vacuum filtration through GF/C or GF/B filters, followed by washing with 3×5 ml of ice-cold NaCl or Tris-HCl buffer. The radioactivity retained on the filters was measured by liquid scintillation counting.

Experiment [5] addresses T1, TRHR1 (GH4 pituitary cell line, naturally expresses TRHR1). The conditions noted are these: Scalabrino 2007, Hogan 2008; cited from earlier work.
Experiment [6] concerns TRHR1. The experiment can be described thus: Displacement of [3H][3-Me-His2]TRH, membranes from CHO cells transfected with TRHR1. It is filed as binding. The conditions noted are these: N = 2; read-out: IC50, displacement of [^3H][3-Me-His^2]TRH, membranes from Chinese Hamster Ovary cells transfected with TRHR1.
For experiment [7], the target named is T3, TRH receptors in rat pituitary tissue (Rattus norvegicus, UniProt Q01717).
T3 construct: host or cells: rat pituitary tissue
T3 sequence (Q01717 1-412): T1 sequence (Q01717 1-412)
The conditions noted are these: cited from earlier work.

Experiment [8] concerns TRHR1. The note with it: Scalabrino 2007, Hogan 2008; cited from earlier work.
The subject of experiment [9] is [^3H][3-Me-His^2]TRH-labelled native TRH receptors in rat hippocampal membranes. The note with it: Scalabrino 2007, Hogan 2008; cited from earlier work.
For experiment [10], the system named is [^3H][3-Me-His^2]TRH-labelled native TRH receptors in rat cortical membranes. The conditions noted are these: cited from earlier work.
Experiment [11] deals with TRH receptors in human CNS tissue (cortical, hippocampal, spinal cord). The experiment can be described thus: Competition binding with [3H][3-Me-His2]TRH, human CNS tissue membranes. The conditions noted are these: for pIC50: 5 h at 4° C. The method, then:
Competition binding assays using human tissue prepared from individual donors with no history of neurological disease were carried out essentially as previously described (Kelly et al., 2002; Scalabrino et al., 2007; […] Separation of bound and free ligand was achieved by vacuum filtration through GF/C or GF/B filters, followed by washing with 3×5 ml of ice-cold NaCl or Tris-HCl buffer. The radioactivity retained on the filters was measured by liquid scintillation counting.

In the next experiment the target is T4, TRHR2 (Rattus norvegicus, UniProt A6IZR3).
T4 construct: host or cells: CHO cells expressing TRHR2
T4 sequence (A6IZR3 1-352): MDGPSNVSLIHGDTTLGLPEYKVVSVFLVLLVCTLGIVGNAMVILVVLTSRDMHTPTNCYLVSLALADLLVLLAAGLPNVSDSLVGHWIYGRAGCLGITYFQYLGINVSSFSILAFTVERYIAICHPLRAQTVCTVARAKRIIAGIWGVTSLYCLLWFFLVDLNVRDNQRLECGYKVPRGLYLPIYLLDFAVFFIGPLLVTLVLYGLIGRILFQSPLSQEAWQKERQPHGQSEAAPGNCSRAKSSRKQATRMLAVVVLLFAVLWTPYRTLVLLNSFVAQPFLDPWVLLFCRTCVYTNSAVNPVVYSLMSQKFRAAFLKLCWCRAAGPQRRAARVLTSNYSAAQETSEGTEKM
The note with it: Scalabrino 2007, Hogan 2008; cited from earlier work.

Experiment [12] concerns the target TRH receptors in human amygdala. The note with it: saturable binding; prior studies; read-out: Kd of radioligand binding in human amygdala; cited from earlier work.
Setting [13] is: human CNS tissue, read-out: IC50, displacement of [^3H][3-Me-His^2]TRH from CNS tissue.

pIC50, pKd, pKi: −log10 of the molar value. “Also recorded” adds a separate entry of the source. Read-outs that look alike come from different tables or passages of the source. Non-standard residues stand in square brackets, D forms with d. Residues, ends and D or L forms follow the SMILES beside them. *: point of attachment. AMC = Cc1cc(=O)oc2cc(N*)ccc12; pGlu = O=C1CC[C@@H](C(=O)O)N1 Where only a bound is given, the exact number is not on record here.

Consider `Cc1cc(=O)oc2cc(NC(=O)[C@@H](Cc3c[nH]c4ccccc34)NC(=O)[C@@H](Cc3ccc(O)cc3)NC(=O)[C@@H]3CCCN3C(=O)[C@H](CC(N)=O)NC(=O)[C@@H]3CCC(=O)N3)ccc12` [Glp-Asn-Pro-DTyr-DTrp-AMC] ([pGlu]NP[dY][dW]-{AMC}), for which the pKi was 7.66 in experiment [1] and 8.77 in experiment [2]. Further, the negative-log IC50 (pIC50) in experiment [3] was less than 4.00.
`NC(=O)C[C@H](NC(=O)[C@@H]1CCC(=O)N1)C(=O)N1CCC[C@H]1C(=O)N[C@H](Cc1ccc(O)cc1)C(=O)N[C@H](Cc1c[nH]c2ccccc12)C(N)=O` [Glp-Asn-Pro-D-Tyr-D-TrpNH2] ([pGlu]NP[dY][dW]-NH2): the pKi in [1] is 7.96; in experiment [2] it was 8.17. In experiment [4] (human pituitary), the “binding to TRH receptors in human pituitary (in words)” value is listed as “not pituitary”. Besides, the “displacement of [^3H][3-Me-His^2]TRH binding from human pituitary (in words)” value in experiment [4] (human pituitary membranes) is recorded as “does not displace; also recorded: did not displace”. For the same molecule, the “displacement of [^3H][3-Me-His^2]TRH binding from GH4 membranes (in words)” value in experiment [5] is given as “does not displace”. Also, the pIC50 was less than 4.00 in the experiment on TRHR1 [6]; less than 4.00 in experiment [3]; roughly 7.00 in [11] (setting [13]); roughly 8.00 in experiment [11] (human hippocampal membranes, read-out: IC50, displacement of [^3H][3-Me-His^2]TRH from hippocampal membranes). Further, the “displacement of [^3H][3-Me-His^2]TRH binding from native rat pituitary tissue (in words)” value in experiment [7] (Scalabrino 2007, Hogan 2008) was “does not displace”. The “displacement of [^3H][3-Me-His^2]TRH binding from CHO-TRHR1 membranes (in words)” value in the experiment with TRHR1 [8] is reported as “does not displace”. The “affinity for [^3H][3-Me-His^2]TRH-labelled native TRH receptors, rat hippocampal tissue homogenate (in words)” value in [9] is on record as “high affinity”. The “affinity for [^3H][3-Me-His^2]TRH-labelled native TRH receptors, rat cortical tissue homogenate (in words)” value in experiment [10] (Scalabrino 2007, Hogan 2008) is “high affinity”. In addition, the “displacement of [^3H][3-Me-His^2]TRH binding from human CNS tissue (in words)” value in experiment [11] (human CNS tissue) was “found to displace”. In experiment [11] (human brain and spinal cord), the “binding to TRH receptors in human brain and spinal cord (in words)” value was “binds”. In addition, the “displacement of [^3H][3-Me-His^2]TRH binding from CHO-TRHR2 membranes (in words)” value at TRHR2 is given as “does not displace”.
With [^3H][3-Me-His^2]TRH, the negative-log Kd (pKd) in experiment [7] (single population of high-affinity sites, prior studies, read-out: Kd of radioligand binding, rat pituitary tissue) is 8.66; in [10] (single population of high affinity sites, prior studies, read-out: Kd of radioligand binding, rat brain cortical membranes) it was roughly 8.30; in experiment [12] it was 8.00 to 8.15.
As for `Cn1cnc(C[C@H](NC(=O)[C@@H]2CCC(=O)N2)C(=O)N2CCC[C@H]2C(N)=O)c1` [[3-Me-His2]TRH, reference compound], the negative logarithm of the Ki (pKi) in [1] is 7.47; in [2] it was 7.13. The results for the negative-log IC50 (pIC50) (in the experiment with TRHR1 [6]; in [3]) were 7.76 and 7.95, respectively.
Turning to `Cc1cc(=O)oc2cc(NC(=O)[C@H](Cc3c[nH]c4ccccc34)NC(=O)[C@H](Cc3ccc(O)cc3)NC(=O)[C@@H]3CCCN3C(=O)[C@H](CC(N)=O)NC(=O)[C@@H]3CCC(=O)N3)ccc12` [Glp-Asn-Pro-LTyr-LTrp-AMC] ([pGlu]NPYW-{AMC}), the negative-log Ki (pKi) in [1] is 7.10; in experiment [2] it was 6.48. Besides, in experiment [3], the negative-log IC50 (pIC50) is less than 4.00.
With `Cc1cc(=O)oc2cc(NC(=O)[C@H](Cc3c[nH]c4ccccc34)NC(=O)[C@H](Cc3c[nH]c4ccccc34)NC(=O)[C@H](Cc3ccc(O)cc3)NC(=O)[C@@H]3CCCN3C(=O)[C@H](CC(N)=O)NC(=O)[C@@H]3CCC(=O)N3)ccc12` [Glp-Asn-Pro-LTyr-LTrp-LTrp-AMC] ([pGlu]NPYWW-{AMC}), the pKi in experiment [1] is 8.06. Besides, the negative-log IC50 (pIC50) in experiment [3] is less than 4.00.
Turning to `Cc1cc(=O)oc2cc(NC(=O)[C@@H](Cc3c[nH]c4ccccc34)NC(=O)[C@@H](Cc3c[nH]c4ccccc34)NC(=O)[C@@H](Cc3ccc(O)cc3)NC(=O)[C@@H]3CCCN3C(=O)[C@H](CC(N)=O)NC(=O)[C@@H]3CCC(=O)N3)ccc12` [Glp-Asn-Pro-DTyr-DTrp-DTrp-AMC] ([pGlu]NP[dY][dW][dW]-{AMC}), the values for the pKi in experiment [1] and in experiment [2] were 7.52 and 7.60, respectively. Moreover, the pIC50 in experiment [3] is less than 4.00.
With `NC(=O)C[C@H](NC(=O)[C@@H]1CCC(=O)N1)C(=O)N1CCC[C@H]1C(=O)N[C@@H](Cc1ccc(O)cc1)C(=O)N[C@@H](Cc1c[nH]c2ccccc12)C(N)=O` [Glp-Asn-Pro-LTyr-LTrp-NH2] ([pGlu]NPYW-NH2), the figures for the negative-log Ki (pKi) in experiment [1] and in experiment [2] were 6.92 and 6.96, respectively. In addition, the negative logarithm of the IC50 (pIC50) (with TRHR1 [6]; in experiment [3]) was less than 4.00 throughout.
As to `NC(=O)[C@@H]1CCCN1C(=O)[C@H](Cc1cnc[nH]1)NC(=O)[C@@H]1CCC(=O)N1` [TRH, Thyrotropin releasing hormone, reference compound], the pIC50 in [4] (human pituitary, 5 h at 4° C., read-out: IC50, displacement of [^3H][3-Me-His^2]TRH from pituitary tissue) was roughly 8.00; in experiment [11] (setting [13]), roughly 8.00. Moreover, the pKi in experiment [10] (prior studies, read-out: Ki, competition for [^3H][3-Me-His^2]TRH sites on rat brain cortical membranes) is roughly 7.60.

As a reminder, the pKi is the negative decadic logarithm of the Ki, by convention in mol/L. As a reminder, the pIC50 is the IC50 on a negative log10 scale, so that one unit is a factor of ten. As a reminder, the pKd is the Kd on a negative log10 scale, so that one unit is a factor of ten.
